In patent US20240024295A1, “COMPOSITIONS AND METHODS FOR INHIBITING HAIR GROWTH” (priority 2020, published 2024):

Test system: C3H mice
Assay: Telogen Conversion Assay
Assay type: in vivo
Conditions: for Average Grades, 23 Days: average of 7 mice after 23 days; for hair regrowth as compared to the control group (placebo): applied daily to mice, at the appropriate dose-level, week 3 and week 4, FIGURE; for effect on hair growth (average grade): average grade of 7 mice after 23 days, example written in present tense
Method: FP receptor antagonists are tested for their potential to grow hair using the Telogen Conversion Assay. The Telogen Conversion Assay measures the potential of a FP receptor antagonist to inhibit in mice the conversion of hair in the resting stage of the hair growth cycle (“telogen”), to the growth stage of the hair growth cycle (“anagen”), and to assess the rate of anagen growth.
Without intending to be limited by theory, there are three principal phases of the hair growth cycle: anagen, catagen, and telogen. It is believed that there is a long telogen period in C3H mice (Harian Sprague Dawley, Inc., Indianapolis, IN) from approximately 40 days of age until about 75 days of age, when hair growth is synchronized. It is believed that after 75 days of age, hair growth is no longer synchronized. Wherein about 40 day-old mice with dark fur (brown or black) are used in hair growth experiments, melanogenesis occurs along with hair (fur) growth wherein the topical application of hair growth inducers is evaluated. The Telogen Conversion Assay herein is used to screen FP receptor antagonists for potential hair growth by measuring melanogenesis and/or inhibition of expected hair growth.
Three groups of 44 day-old C3H mice are used: a vehicle control group, a positive control group, and a test FP receptor antagonist group, wherein the test FP receptor antagonist group is administered a FP receptor antagonist. The length of the assay is typically 24 days with 15 treatment days (wherein the treatment days occur Mondays through Fridays). Day 1 is the first day of treatment. Typical dosage concentrations are set forth in Table 1, however the skilled artisan will readily understand that such concentrations may be modified.
The mice are treated topically Monday through Friday on their lower back (base of tail to the lower rib). A pipette and tip are used to deliver 400 μL to each mouse's back. The 400 μL application is applied slowly while moving hair on the mouse to allow the application to reach the skin.
While each treatment is being applied to the mouse topically, a visual grade of from 0 to 4 will be given to the skin color in the application area of each animal. As a mouse converts from telogen to anagen, its skin color will become less pink and more bluish-black.

[1] = visual skin/hair grade 0 (pink skin) to 4 (full anagen), topical

Row | Compound | Average Grades, 23 Days [1] | Average Grades, 25 Days (visual skin/hair grade 0 (pink skin) to 4 (full anagen), average of 7 mice after 25 days, topical) | Average Grades, 26 Days (visual skin/hair grade 0 (pink skin) to 4 (full anagen), average of 7 mice after 26 days, topical) | hair regrowth as compared to the control group (placebo) | effect on hair growth (average grade)
1 | O=C(O)CCC/C=C\CC1C(/C=C/[C@H](O)C2Cc3ccccc3C2)[C@@H](F)C[C@@H]1O (stereo partly drawn) [Example 1] | 0.4 | 0.1 | 0.7 | – | –
2 | COC(=O)CCC/C=C\CC1C(/C=C/[C@H](O)C2Cc3ccccc3C2)[C@@H](F)C[C@@H]1O (stereo partly drawn) [Example 2] | 0.1 | – | – | inhibited hair regrowth | –
3 | O=C(N[C@H](c1ccccc1)c1ccccn1)[C@@H]1SCCN1S(=O)(=O)c1ccc(-c2ccccc2)cc1 [Example 3] | – | – | – | inhibited hair regrowth | significantly reduces hair growth
4 | CC(C)OC(=O)CCC/C=C\CC1C(/C=C/[C@H](O)C2Cc3ccccc3C2)[C@@H](F)C[C@@H]1O (stereo partly drawn) [Example 4] | – | – | – | – | significantly reduces hair growth
5 | Ile-Leu-Gly-His-(citrulline)-Asp-Tyr-Lys [Example 5] | – | – | – | – | significantly reduces hair growth
